Measured values from EP0260606A2, “Medicament for curing neurotic disturbance or disorder comprising sialocylglycerolipid” (MECT CORPORATION, priority 1986, dated 1988).
Several values for one entry are separate records, joined by “and”; a condition that tells them apart may be missing. Equal entries are not always repeated.

What was measured:
[1] = system: neuroblastoma cell Neuro2a; test: Effect on the neuroblastoma cell Neuro2a (formation and growth of axis-cylinder process); assay type: cell-based; details: for Length of Axis-cylinder Process / Number of Axis-cylinder Process: average ± S.E.
Experimental: The nervous cell used in the test was neuroblastoma cell Neuro2a which is readily available and can be cultured in a relatively simple manner.
Neuro2a was floated on a culture medium containing fetal cattle serum (hereinafter referred to as FCS), the culture medium consisting of 90% of Dubecco's Modified Eagle's Medium (hereinafter referred to as MEM) and l0% of FCS and added with l00 U/ml of penicillin G and l00 µg/ml of streptomycin sulfate, and cultured in a carbon dioxide cultivator at 37°C in an air containing 5% of carbon dioxide. The containers used were 60 mm polystyrene dishes, and each of the containers was incubated with l to 2 × l0⁴ cells followed by culturing for 48 hours prior to the test. […] After the lapse of 24 hours and 48 hours, the increase in cells formed with axis-cylinder process, the increase in number of axis-cylinder processes and the elongation of the length of the axis-cylinder process were measured.
The test was conducted while using three dishes for each concentration of each test material.

[2] = system: rat having its nigral depaminergic neuron destroyed; test: Methamphethamine-induced rotational movement after 6-hydroxydopamine lesion and fetal dopaminergic cell transplantation; assay type: in vivo; details: for Average of Rotational Movement of Rats (Average + S.D.): group average, 30 mg/kg; for Number of Rotational Movement of Rats: individual rat, 30 mg/kg every day for two weeks from transplantation, listed as Ganglioside GM1, 30 mg/kg
Source text: The nigral dopaminergic neuron of the brain of a rat was chemically destroyed by injecting a very small quantity of 6-hydroxydopamine to cause motor disturbance.
After the lapse of two weeks, a fetal brain dopaminergic cell was transplanted on the Nucleus caudatus of the rat brain to try to remedy the motor disturbance.
The nigral depaminergic neuron at the left side of the brain of a female Wister family rat aged 4-weeks (Body Weight: l00 g) was destroyed by injecting a very small quantity of 6-hydroxydopamine.
After two weeks from the destruction by the administration of the drug, portions of the […] containing dopamin cells (i.e. substantia nigra and the Tegmentum at the abdomen side) were extracted from the fetal rat brain of a fetal rat of l4 to l7 days age, cut finely, and treated with trypsin. Then, the extracted tissues were incubated at 37°C for 30 minutes, and the tissues were subjected to pipetting to form a suspension. 5 µl each of the suspensions were transplanted on two sites of the Nucleus caudatus of the destructed side, the total of l0 µl (containing about l0⁵ cells) being transplanted.
The rotational movements caused by administration of methamphethamine were examined at the time point before 2 weeks of the transplantation (- 2W), at the time point before one week of the transplantation (- lW) and at the time point after two weeks of the transplantation (2W). The number of rotational movements within one minute were counted at l0 minute intervals after six administrations of methamphethamine, and the total number of rotational movements counted for the six times was averaged to find the mean rotational movement. As controls, the numbers of rotational movements of the rats administered, respectively, with a ganglioside mixture and GM₁ ganglioside were counted.

[3] = - 1W (before transplantation and dosing)
[4] = - 2W (before transplantation and dosing)

## Gal, (ßl-3) GalNAc (ßl-4) NAcNeu(α2-3))Gal(ßl-4)Glc(ßl-l)Ceramide [GM1]
[1]; 24 hours, 0.01 µg/ml
  Number of Cells Formed with Axis-cylinder Process: 145
  Ratio of Cells Formed with Axis-cylinder Process: 43.4%
  Total Number of Cells: 334
  Length of Axis-cylinder Process: 94.9 ± 6.64 µm/cell
  Number of Axis-cylinder Process: 1.4 ± 0.05 per cell
[1]; 24 hours, 0.1 µg/ml
  Number of Cells Formed with Axis-cylinder Process: 142
  Ratio of Cells Formed with Axis-cylinder Process: 47.8%
  Total Number of Cells: 297
  Length of Axis-cylinder Process: 101.1 ± 5.09 µm/cell
  Number of Axis-cylinder Process: 1.4 ± 0.06 per cell
[1]; 24 hours, 1 µg/ml
  Number of Cells Formed with Axis-cylinder Process: 140
  Ratio of Cells Formed with Axis-cylinder Process: 42.2%
  Total Number of Cells: 332
  Length of Axis-cylinder Process: 109.7 ± 6.44 µm/cell
  Number of Axis-cylinder Process: 1.4 ± 0.06 per cell
[1]; 24 hours, 10 µg/ml
  Number of Cells Formed with Axis-cylinder Process: 149
  Ratio of Cells Formed with Axis-cylinder Process: 45.8%
  Total Number of Cells: 325
  Length of Axis-cylinder Process: 89.3± 4.77 µm/cell
  Number of Axis-cylinder Process: 1.4 ± 0.05 per cell
[1]; 24 hours, 100 µg/ml
  Number of Cells Formed with Axis-cylinder Process: 172
  Ratio of Cells Formed with Axis-cylinder Process: 55.5%
  Total Number of Cells: 310
  Length of Axis-cylinder Process: 90.5 ± 3.88 µm/cell
  Number of Axis-cylinder Process: 1.8 ± 0.05 per cell
[1]; 48 hours, 0.01 µg/ml
  Number of Cells Formed with Axis-cylinder Process: 194
  Ratio of Cells Formed with Axis-cylinder Process: 58.3%
  Total Number of Cells: 333
  Length of Axis-cylinder Process: 93.7 ± 5.07 µm/cell
  Number of Axis-cylinder Process: 1.4 ± 0.05 per cell
[1]; 48 hours, 0.1 µg/ml
  Number of Cells Formed with Axis-cylinder Process: 156
  Ratio of Cells Formed with Axis-cylinder Process: 44.7%
  Total Number of Cells: 349
  Length of Axis-cylinder Process: 108.8 ± 5.97 µm/cell
  Number of Axis-cylinder Process: 1.4 ± 0.06 per cell
[1]; 48 hours, 1 µg/ml
  Number of Cells Formed with Axis-cylinder Process: 211
  Ratio of Cells Formed with Axis-cylinder Process: 59.9%
  Total Number of Cells: 352
  Length of Axis-cylinder Process: 109.2 ± 6.09 µm/cell
  Number of Axis-cylinder Process: 1.3 ± 0.04 per cell
[1]; 48 hours, 10 µg/ml
  Number of Cells Formed with Axis-cylinder Process: 205
  Ratio of Cells Formed with Axis-cylinder Process: 62.1%
  Total Number of Cells: 330
  Length of Axis-cylinder Process: 113.8 ± 5.49 µm/cell
  Number of Axis-cylinder Process: 1.3 ± 0.04 per cell
[1]; 48 hours, 100 µg/ml
  Number of Cells Formed with Axis-cylinder Process: 193
  Ratio of Cells Formed with Axis-cylinder Process: 60.9%
  Total Number of Cells: 317
  Length of Axis-cylinder Process: 98.9 ± 5.22 µm/cell
  Number of Axis-cylinder Process: 1.5 ± 0.05 per cell
[2]; 2W after transplantation
  Average of Rotational Movement of Rats (Average + S.D.): 7.6+3.6
  Number of Rotational Movement of Rats: 3.7 and 10.9 and 8.2
[2]; [3]
  Average of Rotational Movement of Rats (Average + S.D.): 9.8+4.4
  Number of Rotational Movement of Rats: 14.8 and 6.9 and 7.6
[2]; [4]
  Average of Rotational Movement of Rats (Average + S.D.): 9.0+4.1
  Number of Rotational Movement of Rats: 12.5 and 10.1 and 4.5

## (NAcNeu(α2-8) NAcNeu(α2-3))-Gal(ßl-3)GalNAc(ßl-4)(NAcNeu(α2-8)NAcNeu(α-2-3))-Gal(ßl-4)Glc(ßl-l) [GQ1b]
[1]; 24 hours, 0.01 µg/ml
  Number of Cells Formed with Axis-cylinder Process: 174
  Ratio of Cells Formed with Axis-cylinder Process: 51.8%
  Total Number of Cells: 336
  Length of Axis-cylinder Process: 88.5 ± 5.00 µm/cell
  Number of Axis-cylinder Process: 1.3 ± 0.05 per cell
[1]; 24 hours, 0.1 µg/ml
  Number of Cells Formed with Axis-cylinder Process: 159
  Ratio of Cells Formed with Axis-cylinder Process: 58.0%
  Total Number of Cells: 331
  Length of Axis-cylinder Process: 86.0 ± 4.72 µm/cell
  Number of Axis-cylinder Process: 1.3 ± 0.04 per cell
[1]; 24 hours, 1 µg/ml
  Number of Cells Formed with Axis-cylinder Process: 157
  Ratio of Cells Formed with Axis-cylinder Process: 51.0%
  Total Number of Cells: 308
  Length of Axis-cylinder Process: 97.6 ± 4.95 µm/cell
  Number of Axis-cylinder Process: 1.4 ± 0.05 per cell
[1]; 24 hours, 10 µg/ml
  Number of Cells Formed with Axis-cylinder Process: 205
  Ratio of Cells Formed with Axis-cylinder Process: 63.9%
  Total Number of Cells: 321
  Length of Axis-cylinder Process: 114.9 ± 5.98 µm/cell
  Number of Axis-cylinder Process: 1.3 ± 0.06 per cell
[1]; 24 hours, 100 µg/ml
  Number of Cells Formed with Axis-cylinder Process: U.C.
  Total Number of Cells: U.C.
  Length of Axis-cylinder Process: U.C.
  Number of Axis-cylinder Process: U.C.
[1]; 48 hours, 0.01 µg/ml
  Number of Cells Formed with Axis-cylinder Process: 158
  Ratio of Cells Formed with Axis-cylinder Process: 42.6%
  Total Number of Cells: 371
  Length of Axis-cylinder Process: 100.4 ± 5.76 µm/cell
  Number of Axis-cylinder Process: 1.5 ± 0.06 per cell
[1]; 48 hours, 0.1 µg/ml
  Number of Cells Formed with Axis-cylinder Process: 153
  Ratio of Cells Formed with Axis-cylinder Process: 44.1%
  Total Number of Cells: 347
  Length of Axis-cylinder Process: 90.4 ± 6.06 µm/cell
  Number of Axis-cylinder Process: 1.2 ± 0.04 per cell
[1]; 48 hours, 1 µg/ml
  Number of Cells Formed with Axis-cylinder Process: 182
  Ratio of Cells Formed with Axis-cylinder Process: 47.4%
  Total Number of Cells: 384
  Length of Axis-cylinder Process: 106.5 ± 6.40 µm/cell
  Number of Axis-cylinder Process: 1.3 ± 0.04 per cell
[1]; 48 hours, 10 µg/ml
  Number of Cells Formed with Axis-cylinder Process: 214
  Ratio of Cells Formed with Axis-cylinder Process: 61.8%
  Total Number of Cells: 346
  Length of Axis-cylinder Process: 122.5 ± 6.99 µm/cell
  Number of Axis-cylinder Process: 1.3 ± 0.04 per cell
[1]; 48 hours, 100 µg/ml
  Number of Cells Formed with Axis-cylinder Process: U.C.
  Total Number of Cells: U.C.
  Length of Axis-cylinder Process: U.C.
  Number of Axis-cylinder Process: U.C.
